Experimental data taken from patent US7863415B2 (The Regents of the University of California, priority 2004, dated 2011).
“Also recorded” adds a separate entry of the source. Where two headings read alike, the source gives them in different places. Starred links: 1 amine or outer side, 2 acyl side, 3 side chain; linkers in the order of their positions; H or OH if unused. Non-standard residues stand in square brackets, D forms with d. Residues, ends and D or L forms follow the SMILES beside them. No end group written: not given here. X1 = N=C(N)NC(=O)c1nc(Cl)c(N(CC(=O)[*:2])[*:1])nc1N

How the values were obtained:
[1] = system: enkephalinase (endopeptidase 24.11); test: Enzyme digestion with enkephalinase, LC-MS/ESI; assay type: in vitro ADME, porcine; conditions: for Conclusion (Peptidase: Enkephalinase): 10 μM conjugate, 10 units enzyme, 25° C., pH 7.4, 24 h; for Cleavage by enkephalinase (release of compound 3a): 24 h incubation, LC-MS
Description: (§1) Compound 3b is a C5am-Gly-peptide conjugate containing two D-amino acids, and compound 3c is a C5am-Gly-peptide conjugate coupled to a peptide to generate an analog of opioid peptides that cross the blood brain barrier (BBB). The resultant conjugates (compounds 3a-c) were tested for selective cleavage by the brain peptidase enkephalinase (neutral endopeptidase 24.11; Calbiochem) via incubation for 24 h in the presence or absence of the enzyme, and aliquots from the reaction solutions were then analyzed by LC-MS to identify the C5am-Gly conjugate (compound 3a), starting material, and enzymatic cleavage products (see, Scheme 3). As negative control experiments, the conjugates were analyzed following treatment with (1) bovine pancreatic trypsin (Calbiochem) or (2) the buffer solutions without enzymes.
(§2) Enzyme digestion. Endopeptidase 24.11 (neutral, porcine kidney) and trypsin (bovine pancreas) were purchased from CalBiochem (San Diego, Calif.) and used as received. Enzymatic cleavage experiments using endopeptidase 24.11 were conducted at 25° C. in a pH 7.4 Tris buffer (150 mM NaCl, 50 mM Tris, 0.1% Triton X-100) as recommended by the manufacturer (see also, Barnes et al., J. Neurochem., 64:1826-1832 (1995), Gafford et al., Biochemistry, 22:3265-3271 (1983)). Similarly, trypsin cleavage experiments were conducted at 25° C. in pH 7.4 Dulbecco's phosphate buffered saline (Gibco; Grand Island, N.Y.). The digestion reactions included 10 μM of the amiloride-peptide conjugate and 10 units of enzyme in 250 μL of buffer. Direct aliquots were analyzed by LC-MS/ESI following a 24 hour incubation period.
(§3) Enzyme Digestion Study. Compounds 3a-d were each incubated at 25° C. with 10 units of enkephalinase (endopeptidase 24.11) to determine their susceptibility towards enzymatic cleavage. Reaction aliquots were taken following a 24 hour incubation period and analyzed directly by LC-MS/ESI (Thermo Finnigan LCQ) for the presence of the starting material and the targeted cleavage product, compound 3a (C5am-Gly). […] Since there are no basic amino acid residues in compounds 3a-d, trypsin was employed as a negative control to ensure that any observed cleavage products could be ascribed only to endopeptidase-specific interactions (Jackson, Protein Science, 8:603-613 (1999)).

trypsin = target: T1, trypsin (Bos taurus, UniProt P00760); test: Enzyme digestion with trypsin (negative control), LC-MS/ESI; assay type: in vitro ADME, bovine; conditions: for Conclusion (Peptidase: Trypsin): 10 μM conjugate, 10 units enzyme, 25° C., pH 7.4, 24 h
T1 construct: purchased CalBiochem (San Diego, Calif.); host or cells: bovine pancreas
T1 sequence (P00760 24-246): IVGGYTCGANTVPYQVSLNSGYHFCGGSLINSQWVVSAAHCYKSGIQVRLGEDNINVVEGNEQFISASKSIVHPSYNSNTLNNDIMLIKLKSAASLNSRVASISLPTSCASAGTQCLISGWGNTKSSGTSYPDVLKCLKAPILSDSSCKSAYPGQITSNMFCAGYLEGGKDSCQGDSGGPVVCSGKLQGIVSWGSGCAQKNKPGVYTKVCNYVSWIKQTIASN
Description: as §1, §2, §3

[2] = system: [Ca^2+]i in U87 glioma cells; test: [Ca2+]i in U87 glioma cells loaded with fura-2AM, quantitative fluorescent microscopy; assay type: cell-based, human; conditions: U87 glioma cells
Description: Therefore, the levels of [Ca^2+]i in U87 glioma cells loaded with fura-2AM were measured using quantitative fluorescent microscopy. […] The ATP-dependent calcium regulatory mechanisms within U87 glioma cells containing fura-2 were then examined. […] ATP synthase operates in reverse when milimolar concentrations of calcium are stored by the mitochondrion (Nicholls, Bioenergetics, 3, Academic Press, London, 3rd edition (2002)).
Quantitative fluorescent microscopy of [Ca^2+]i levels. [Ca^2+]i levels can be measured in cells loaded with either fura-2A or fura-2FFAM under the conditions described above.

U87 glioma cells [3] = test: Glioma cell death, manual cell counts with trypan blue exclusion; conditions: for Glioma Effect: cytotoxic concentration: glioma cells
[4] = system: glioma cells and primary astrocytes; test: Cell entry by confocal microscopy; assay type: in vitro ADME
NHE1 and NCX = NHE1 and NCX inhibitors from the literature; cited from earlier work
U87 cells = test: Intracellular translocation into U87 cells by fluorescence microscopy; conditions: 50 μM; 90 and 180 min; 380 nm excitation, 510 nm emission
From the text: Fluorescence Microscopy. […] Excitation light was provided by a xenon arc lamp coupled to the Polychrome IV scanning monochromator (Till Photonics; Grafelfing, Germany) that alternately excites with different wavelengths. Excitation light was delivered by fiber optics to cells through the epifluorescence port of a Nikon E600 microscope coupled to a Nikon Fluor 60× water immersion lens. The detector was an Orca II-ER CCD digital camera (Hamamatsu USA; Bridgewater, N.J.), which is controlled by C-Imaging Simple PCI software (Compix; Cranberry Township, Pa.).
Intracellular emission intensities were collected in regions of interest (ROI) from an average of 4-8 cells/field using Simple PCI imaging software. […] Images were captured as TIFF files (C-imaging Simple PCI software), and light and fluorescent images of the same field were imported in Photoshop 6.0 and vector graphics added using Illustrator 9.0.1 (Adobe; San Jose, Calif.).

NHE1 = NHE1 (Homo sapiens, UniProt P19634); test: NHE1 inhibition: sodium-dependent pHi recovery in BCECF-loaded U87 glial cells after ammonium chloride pre-pulse; assay type: cell-based; design: Sodium-dependent proton extrusion in U87 glial cells and in primary astrocytes is mediated by the type 1 sodium proton exchanger (NHE1); endogenous in cells; host or cells: U87 human glioma cells
NHE1, sequence (P19634 whole entry): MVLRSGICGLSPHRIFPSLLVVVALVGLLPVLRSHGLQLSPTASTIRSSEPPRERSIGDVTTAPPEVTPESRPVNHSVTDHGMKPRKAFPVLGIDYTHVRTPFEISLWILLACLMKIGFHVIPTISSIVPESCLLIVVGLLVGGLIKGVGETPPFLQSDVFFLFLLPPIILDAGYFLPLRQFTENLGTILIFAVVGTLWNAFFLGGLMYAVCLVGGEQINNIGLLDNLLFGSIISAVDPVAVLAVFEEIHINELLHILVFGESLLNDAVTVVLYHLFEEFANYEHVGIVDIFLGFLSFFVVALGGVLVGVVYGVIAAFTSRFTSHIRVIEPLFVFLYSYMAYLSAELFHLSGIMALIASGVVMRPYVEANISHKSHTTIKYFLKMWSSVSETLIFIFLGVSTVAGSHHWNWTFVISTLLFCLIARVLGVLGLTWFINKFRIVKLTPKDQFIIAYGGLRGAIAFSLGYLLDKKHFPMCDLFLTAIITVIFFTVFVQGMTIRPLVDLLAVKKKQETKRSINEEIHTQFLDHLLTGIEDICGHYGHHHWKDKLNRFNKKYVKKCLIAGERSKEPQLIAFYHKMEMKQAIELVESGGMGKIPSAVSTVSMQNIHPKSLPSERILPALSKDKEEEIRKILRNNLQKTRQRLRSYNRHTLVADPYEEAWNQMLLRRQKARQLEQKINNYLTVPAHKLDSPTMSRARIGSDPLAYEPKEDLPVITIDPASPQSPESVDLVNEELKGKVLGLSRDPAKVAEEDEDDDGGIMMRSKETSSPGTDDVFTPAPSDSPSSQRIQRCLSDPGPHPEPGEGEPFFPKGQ
Description: Intracellular pH Measurements. U87 glial cells were grown on glass coverslips and incubated for 30 minutes at 37° C. with the pH-sensitive dye, 2′,7′-bis(2-carboxyethyl)-5(6)-carboxyfluorescein-AM (BCECF-AM; Molecular Probes, OR). Cells were rinsed with HEPES Ringer buffer twice and maintained at 37° C. for an additional 15 minutes to permit intracellular hydrolysis of the AM ester; trapping BCECF within the cells. Cells on coverslips were placed in a Hitachi F2000 fluorescent spectrophotometer and excited at 440 and 507 nm with fluorescent emissions recorded at 535 nm (Hegde et al., J. Pharmacol. Exp. Ther., 310:67-74 (2004)).
NHE inhibition by compounds 3a and 3c was evaluated using intracellular pH (pHi) measurements in the U87 human glial cell line (Hegde et al., supra). Cells loaded with BCECF were then acidified using the ammonium chloride pre-pulse method (Roos et al., Physiol Rev, 61:296-434 (1981)). The subsequent sodium-dependent recovery of pHi by these cells in the absence of bicarbonate was monitored using a spectrofluorometer. Sodium-dependent proton extrusion in U87 glial cells and in primary astrocytes is mediated by the type 1 sodium proton exchanger (NHE1) (McLean et al., supra; Hegde et al., supra) and was monitored in the presence or absence of compound 3a or 3c.
IC50 drug determinations for NHE1. This method utilizes spectrofluorometric measurements of [H^+]i as described above. The ammonium chloride prepulse method can be used to acidify cells in the presence of HR that is sodium-substituted with NMDG. Perfusion of the acidified cells with HR that contains sodium causes activation of NHE1 that is inhibited in a concentration-dependent fashion as described in McLean et al., supra.

U87 glioma cells [5] = test: Glioma cell proliferation, manual cell counts with trypan blue; assay type: cell-based, human; conditions: glioma cells
Description: C(5)-amiloride glycine conjugate (C5am-Gly) inhibits NHE1 in U87 glioma cells and is antiproliferative. […] The inhibitory activity of C5am-Gly against NCX was tested and a systematic log dose screen of C5am-Gly against a panel of glioma cells and primary astrocytes was performed.
Manual cell counts with dye exclusion assays. Identical concentrations of glioma cells can be plated on 60 mm dishes and grown until 50% confluent. Following drug treatments, media containing floating cells can be collected in suspension. Adherent cells can be rinsed in calcium- and magnesium-free phosphate-buffered saline (PBS-CMF) and removed by incubation with 0.25% v/v trypsin for 5 minutes (37° C.). Cell suspensions can be combined with the floating fraction and centrifuged at 350×g for 5 minutes. The resulting pellet (one per dish) can be resuspended in equal volumes of PBS-CMF with 0.4% trypan blue and/or 500 nM Sytox Green. 10 μL aliquots of the suspension can be plated on a hemocytometer, and cells can be counted 5 minutes after staining. Simultaneous staining of cells with trypan (TB) and Sytox Green (SG) can be visualized by switching between visible light and fluorescein green.

For “Compound 3d: C(5)-amiloride peptide conjugate prepared according to Scheme 1 with peptide sequence Gly-Gly-Gly-Phe-Leu (GGGFL; not fully specified (N-terminus); printed as Gly-Gly-Gly-Phe-Leu; also: C(5)-amiloride conjugate)”, the “Conclusion (Peptidase: Enkephalinase)” value [1] was “Enkephalinase resistant”, the “Cleavage by enkephalinase (release of compound 3a)” value [1] was “did not liberate compound 3a” and the “Conclusion (Peptidase: Trypsin)” value (trypsin) was “Trypsin resistant”.
For CS(=O)(=O)O.CS(=O)(=O)c1cc(C(=O)N=C(N)N)ccc1N1CCCCC1 [HOE694], the “Effect on [Ca2+]i” value [2] was “did not alter”.
In the case of C[C@H](CCC(=O)O)C[C@H](C)C[C@H](C)C(=O)/C=C(\O)[C@H](C)C[C@H](C)C/C=C/[C@@H](C)[C@@H](O)[C@@H](C)[C@@H](O)C[C@@H]1CC[C@@](C)([C@H]2CC[C@@](C)([C@@H](C)O)O2)O1 [Ionomycin], the “Time to kill glioma cells” value (U87 glioma cells [3]) is reported as 90 to 180 min.
In the case of N=C(NC(=O)CN)NC(=O)c1nc(Cl)c(N)nc1N [C2am-Gly], the “Cell entry by confocal microscopy” value [4] is reported as “not visualized entering”, the “Effect on [Ca2+]i” value [2] is reported as “increased” and the “Potency of killing glioma cells relative to amiloride” value (U87 glioma cells [3]) is reported as “greater than 50 times”. The “Concentration that killed U87 glioma cells” value (U87 glioma cells [3]; U87 glioma cells, C2am-Gly within 24 h) was ≤ 10 µM and the “Glioma Effect: cytotoxic concentration” value (U87 glioma cells [3]) was “≦10 μM cytotoxic”.
In the case of CCOc1ccc(Oc2ccc(OCc3cc(F)ccc3F)cc2)c(N)c1 [SEA0400], the “Rel. Activity” value (NHE1 and NCX) is listed as “NCX only no NHE activity (Ca^2+ influx mode > Ca^2+ efflux mode)”.
With CCN(c1nc(N)c(C(=O)NC(=N)N)nc1Cl)C(C)C [EIPA, ethylisopropylamiloride] the “Cell entry by confocal microscopy” value ([4]; C2am-Gly after 90-240 minutes) was “Rapid cell permeation”, the “Intracellular accumulation in U87 cells” value (U87 cells) was “intracellular accumulation; also recorded: rapid cell permeation” and the “Reversal of NHE1 inhibition after removal of compound” value (NHE1; U87 cells) was “slow and incomplete recovery”.
With C/C=C(/C)C(=O)O[C@H]1C(C)=C2[C@H]([C@@H]1OC(=O)CCCCCCC)[C@@](C)(OC(C)=O)C[C@H](OC(=O)CCC)[C@@]1(O)[C@H]2OC(=O)[C@@]1(C)O [thapsigargin] the “Effect on [Ca2+]i” value [2] was “modest and transient increase”.
For CC[C@H]1/C=C/C=C/C[C@@H](C)[C@H](O)[C@@](C)(O)C(=O)[C@@H](C)[C@H](O)[C@@H](C)C(=O)[C@@H](C)[C@H](O)[C@@H](C)/C=C/C(=O)O[C@@H]2[C@H](C)[C@H](CC1)O[C@]1(CC[C@H](C)[C@H](C[C@@H](C)O)O1)[C@H]2C [oligomycin], the “[Ca2+]i transients” value ([2]; F0F1ATPase inhibition) was > 800 nM.
For C[C@@H]1O[C@@H](O[C@H]2C[C@@H](O)[C@]3(CO)[C@H]4[C@H](O)C[C@]5(C)[C@@H](C6=CC(=O)OC6)CC[C@]5(O)[C@@H]4CC[C@]3(O)C2)[C@H](O)[C@H](O)[C@H]1O [oubain], the “Effect on [Ca2+]i” value [2] was “did not demonstrably alter”.
For CC(C)C[C@H](NC(=O)[C@H](Cc1ccccc1)NC(=O)CNC(=O)CNC(=O)CNC(=O)CNc1nc(N)c(C(=O)NC(=N)N)nc1Cl)C(=O)O [Compound 3c, C5am-Gly-Gly-Gly-Gly-Phe-Leu-OH] (H-[X1]GGGFL-OH), the “Conclusion (Peptidase: Enkephalinase)” value [1] was “Enkephalinase-mediated”, the “Cleavage by enkephalinase (release of compound 3a)” value [1] was “selectively cleaved; also recorded: released compound 3a; also recorded: complete digestion” and the “Conclusion (Peptidase: Trypsin)” value (trypsin) was “Trypsin-mediated cleavage”. For the same compound, the “Cleavage by trypsin (release of compound 3a)” value (trypsin; 24 h incubation, LC-MS) was “did not generate C5am-Gly; also recorded: did not release compound 3a” and the IC50 (NHE1; U87 glial cells, sodium-dependent pHi recovery without bicarbonate, read-out: IC50 (μM) +/− SD (NHE inhibition)) was > 100 µM.
For N=C(N)SCCc1ccc(OCc2ccc([N+](=O)[O-])cc2)cc1 [KB-R7943], the “Rel. Activity” value (NHE1 and NCX) is listed as “NCX > NHE (blocks Ca^2+ influx)”, the “Glioma Effect: antiproliferative concentration” value (U87 glioma cells [5]) is listed as “not antiproliferative” and the “Effect of pretreatment on [Ca2+]i after calcium release from mitochondrial stores” value ([2]; FCCP or oligomycin) is listed as “did not cause a persistent increase”. For the same compound, the “Glioma Effect: cytotoxic concentration” value (U87 glioma cells [3]) was “not cytotoxic” and the “Cytotoxicity to glioma cells” value (U87 glioma cells [3]; manual cell counts, trypan blue cell exclusion assay) was “non-toxic”.
